From PMC10338470, “Phase 1 study of GSK3368715, a type I PRMT inhibitor, in patients with advanced solid tumors” (British Journal of Cancer, 2023)
“And” between values parts separate entries of the source, which are not always exact repeats. Equal values may be shown once. Marks after values point to notes of the source that are not given here.

Test: Phase 1 safety: adverse events, dose-limiting toxicities, thromboembolic events (NCI-CTCAE v5.0)
Type: in vivo, human
Description: The study was approved by the ethics committee at every participating institution and was conducted according to the recommendations of Good Clinical Practice and the Declaration of Helsinki. All patients provided written informed consent to participate in the study.
Part 1 of this study included a dose-escalation cohort to assess the incidence of dose-limiting toxicities (DLTs) and adverse events, and a PK/PD cohort to characterize the PK/PD profile of GSK3368715 (Fig. 1). A food-effect cohort and a second study phase (part 2) to assess the preliminary clinical activity of GSK3368715 were also planned.
For each dosing group in the dose-escalation cohort, GSK3368715 was administered on day 1, no treatment was administered on days 2 and 3 (to characterize single-dose PK), and daily dosing continued thereafter until disease progression, unacceptable toxicity, or withdrawal of consent. Study treatment was dosed at approximately the same time of day (±4 h), with no food for 1 h before and 2 h after each dose.
The study resumed under a protocol amendment with the PK/PD cohort starting at a daily dose of 100 mg, and dose escalation was limited to 50-mg increments. The incidence and frequency of TEEs were added to the DLT criteria (grade 2 TEE requiring systemic anticoagulation or ≥grade 3 TEE) with extended monitoring to 8 weeks or until study discontinuation, whichever occurred first. Further, eligibility criteria were modified to exclude patients at high risk of thrombosis (ie, Khorana score ≥3 or prior medical history of TEE). Patients with a Khorana score of 2 were considered for prophylactic anticoagulation if deemed appropriate by the investigator. Khorana score is a risk assessment model based on clinical and laboratory parameters to classify the risk for chemotherapy-associated venous thromboembolism (Supplemental Table 2).
Adverse events were coded using the standard MedDRA groupings and graded according to NCI-CTCAE version 5.0. Clinical chemistry, urinalysis, and coagulation tests were performed predose on days 1, 8, 15, 22, and weekly thereafter. Tumor imaging occurred every 8 weeks until week 33, and then every 16 weeks thereafter.
The Neuenschwander Continual Reassessment Method dose-escalation design has been previously described. […] Additionally, following the protocol amendment, dose escalations were limited to 50-mg increments.
Adverse events and DLTs were summarized descriptively by dose cohort. Pharmacokinetic parameters of GSK3368715 and its metabolites (GSK3963583 and GSK3983164) were estimated in the PK/PD population (all participants for whom a PK sample was obtained) using a noncompartmental analysis model (WinNonlin version 8.1) and summarized descriptively. Best overall response as per RECIST 1.1 was summarized descriptively by dose cohort. Levels of tumor cell and plasma pharmacodynamic biomarkers were also summarized descriptively.

## CCOCC1(COCC)CCC(c2[nH]ncc2CN(C)CCNC)CC1 [GSK3368715]
  Grade 3 TEE events: 8
50 mg (n = 3)
  AE: Anemia: 1 (33) n (%)
  AE: Diarrhea: 1 (33) n (%)
  AE: Dyspnea: 1 (33) n (%)
  AE: Fatigue: 1 (33) n (%)
  AE: Nausea: 2 (67) n (%)
  AE: Neutrophil count decreased: 0 n (%)
  AE: Pulmonary embolism: 0 n (%)
  AE: Pyrexia: 1 (33) n (%)
  AE: Vomiting: 2 (67) n (%)
  Any AE (all AEs and all grades): 3 (100) n (%)
  GSK3368715-related Grade 3 AE: Aortic thrombosis: 0 n (%)
  GSK3368715-related Grade 3 AE: Atrial fibrillation: 0 n (%)
  GSK3368715-related Grade 3 AE: Deep vein thrombosis: 0 n (%)
  GSK3368715-related Grade 3 AE: Neutrophil count decreased: 0 n (%)
  GSK3368715-related Grade 4 AE: Lymphocyte count decreased: 0 n (%)
  GSK3368715-related Grade 4 AE: Platelet count decreased: 0 n (%)
50 mg dose group
  Dose-limiting toxicities (DLTs): no DLTs
50 mg, patient with cholangiocarcinoma
  Thromboembolic event grade: Portal vein thrombosis: 2
100 mg (n = 16)
  AE: Anemia: 6 (38)^b n (%)
  AE: Diarrhea: 5 (31)^b n (%)
  AE: Dyspnea: 2 (13) n (%)
  AE: Fatigue: 6 (38) n (%)
  AE: Nausea: 3 (19) n (%)
  AE: Neutrophil count decreased: 1 (6)^d,e n (%)
  AE: Pulmonary embolism: 2 (13)^c n (%)
  AE: Pyrexia: 5 (31) n (%)
  AE: Vomiting: 2 (13) n (%)
  Any AE (all AEs and all grades): 15 (94) n (%)
  GSK3368715-related Grade 3 AE: Aortic thrombosis: 0 n (%)
  GSK3368715-related Grade 3 AE: Atrial fibrillation: 0 n (%)
  GSK3368715-related Grade 3 AE: Deep vein thrombosis: 0 n (%)
  GSK3368715-related Grade 3 AE: Neutrophil count decreased: 1 (6)^e n (%)
  GSK3368715-related Grade 4 AE: Lymphocyte count decreased: 0 n (%)
  GSK3368715-related Grade 4 AE: Platelet count decreased: 0 n (%)
100 mg, patient with head and neck squamous cell carcinoma, study drug withdrawn
  Thromboembolic event grade: Pulmonary embolism: 2
100 mg, patient with pancreas adenocarcinoma
  Thromboembolic event grade: Pulmonary embolism: 3
200 mg
  Grade 5 pulmonary embolism, number: 1
200 mg (n = 12)
  AE: Anemia: 2 (17) n (%)
  AE: Diarrhea: 1 (8) n (%)
  AE: Dyspnea: 1 (8) n (%)
  AE: Fatigue: 1 (8) n (%)
  AE: Nausea: 4 (33) n (%)
  AE: Neutrophil count decreased: 3 (25) n (%)
  AE: Pyrexia: 0 n (%)
  AE: Vomiting: 3 (25) n (%)
  Any AE (all AEs and all grades): 12 (100) n (%)
  GSK3368715-related Grade 3 AE: Aortic thrombosis: 1 (8)^b,g n (%)
  GSK3368715-related Grade 3 AE: Atrial fibrillation: 1 (8)^g n (%)
  GSK3368715-related Grade 3 AE: Deep vein thrombosis: 1 (8) n (%)
  GSK3368715-related Grade 3 AE: Neutrophil count decreased: 0 n (%)
  GSK3368715-related Grade 4 AE: Lymphocyte count decreased: 1 (8)^b n (%)
  GSK3368715-related Grade 4 AE: Platelet count decreased: 1 (8)^b,g n (%)
200 mg, patient with epithelioid hemangioendothelioma
  Thromboembolic event grade: Pulmonary embolism: 3
200 mg, patient with mucoepidermoid carcinoma of parotid
  Thromboembolic event grade: Pulmonary embolism: 3
200 mg, patient with pancreas adenocarcinoma mucinous, fatal
  Thromboembolic event grade: Pulmonary embolism: 5
50-mg dose group
  Participants with grade 2 portal vein thrombosis: 1
100-mg dose group
  Dose-limiting toxicities (DLTs): no DLTs
  Patients with grade 3 decrease in neutrophil count leading to dose reduction: 1 patient
  Pulmonary embolisms reported (1 grade 2, 1 grade 3): 2
200-mg dose group
  Grade 3 aortic thrombosis events: 1
  Grade 3 deep vein thrombosis events: 1
  Grade 3 portal vein thrombosis events: 2
  Grade 3 pulmonary embolism events: 4
  Patients with grade 3 aortic thrombosis: 1 patient
  Patients with grade 3 atrial fibrillation: 1 patient
  Patients with grade 3 deep vein thrombosis: 1 patient
  Patients with grade 4 decrease in lymphocyte count: 1 patient
  Patients with grade 4 decrease in platelet count: 2 patients
200-mg dose group (n = 12), aortic thrombosis, atrial fibrillation, decrease in platelet count
  Patients with dose-limiting toxicities (DLTs): 25%
200-mg dose group, PE and intracranial hemorrhage
  Fatal (grade 5) SAEs: 2
Total (N = 31)
  AE: Anemia: 9 [29%] n (%) and 9 (29) n (%)
  AE: Diarrhea: 7 (23) n (%)
  AE: Dyspnea: 4 (13) n (%)
  AE: Fatigue: 8 [26%] n (%) and 8 (26) n (%)
  AE: Nausea: 9 [29%] n (%) and 9 (29) n (%)
  AE: Neutrophil count decreased: 4 (13) n (%)
  AE: Pyrexia: 6 (19) n (%)
  AE: Vomiting: 7 (23) n (%)
  Any AE (all AEs and all grades): 30 [97%] n (%) and 30 (97) n (%)
  GSK3368715-related AEs by maximum grade: Grade 3: 4 (13) n (%)
  GSK3368715-related AEs by maximum grade: Grade 4: 2 (6) n (%)
Across dose groups (abstract)
  Number of grade 3 TEEs: 8
Across dose groups, N = 31, 95% confidence interval 14–48%
  Patients experiencing thromboembolic events (TEEs): 29%
Across dose groups, in 9 participants
  Number of thromboembolic events (TEEs): 12
All dose groups
  Changes from baseline for clinical chemistry, hematology, urinalysis, or echocardiograms (ECGs): No clinically significant trends
All dose groups, N = 31
  Patients who discontinued due to a DLT: 3
  Patients who discontinued due to an AE: 5 patients
  Patients with ≥1 grade 3 or grade 4 treatment emergent AEs: 52%
  Patients with ≥1 serious AE (SAE): 39%
